Consider seven molecules from ChEMBL document CHEMBL1127588, “A structure-activity relationship study of benzylic modifications of 4-[1-(1-naphthyl)ethyl]-1H-imidazoles on alpha 1- and alpha 2-adrenergic receptors” (J Med Chem, 1994).

Test [1] has as its target T1, Adrenergic receptor alpha-1 (Rattus norvegicus, UniProt P15823+P23944+P43140).
T1 sequence (P15823 whole entry): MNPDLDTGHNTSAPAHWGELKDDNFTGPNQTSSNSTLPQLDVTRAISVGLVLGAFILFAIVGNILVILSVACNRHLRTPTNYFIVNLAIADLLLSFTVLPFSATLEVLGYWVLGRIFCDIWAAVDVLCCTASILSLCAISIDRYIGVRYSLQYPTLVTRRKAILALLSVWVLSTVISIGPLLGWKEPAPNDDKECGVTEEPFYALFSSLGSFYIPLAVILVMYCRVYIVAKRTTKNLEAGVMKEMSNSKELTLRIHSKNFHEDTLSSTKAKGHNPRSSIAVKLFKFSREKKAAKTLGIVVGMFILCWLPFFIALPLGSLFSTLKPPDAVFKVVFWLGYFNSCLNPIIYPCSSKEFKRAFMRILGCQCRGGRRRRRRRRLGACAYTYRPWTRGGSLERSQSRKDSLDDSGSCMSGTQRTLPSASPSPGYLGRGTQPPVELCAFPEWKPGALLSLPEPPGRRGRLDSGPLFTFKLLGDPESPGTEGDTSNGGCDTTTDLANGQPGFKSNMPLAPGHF
T1 sequence (P23944 whole entry): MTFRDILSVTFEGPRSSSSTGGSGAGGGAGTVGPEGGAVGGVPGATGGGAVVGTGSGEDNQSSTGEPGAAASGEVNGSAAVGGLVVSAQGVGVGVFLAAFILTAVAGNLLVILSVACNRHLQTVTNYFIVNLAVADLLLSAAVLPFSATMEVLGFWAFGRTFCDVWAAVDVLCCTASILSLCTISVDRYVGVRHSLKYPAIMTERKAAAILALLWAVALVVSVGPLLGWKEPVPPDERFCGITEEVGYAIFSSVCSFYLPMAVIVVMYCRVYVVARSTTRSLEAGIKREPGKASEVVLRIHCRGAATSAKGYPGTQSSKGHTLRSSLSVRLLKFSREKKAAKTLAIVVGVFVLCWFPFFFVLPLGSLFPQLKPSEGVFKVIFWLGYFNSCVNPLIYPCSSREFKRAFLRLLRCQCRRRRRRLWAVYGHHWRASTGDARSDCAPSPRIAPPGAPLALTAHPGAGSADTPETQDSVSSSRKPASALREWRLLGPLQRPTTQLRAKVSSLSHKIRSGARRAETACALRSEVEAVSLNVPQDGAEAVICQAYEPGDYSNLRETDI
T1 sequence (P43140 whole entry): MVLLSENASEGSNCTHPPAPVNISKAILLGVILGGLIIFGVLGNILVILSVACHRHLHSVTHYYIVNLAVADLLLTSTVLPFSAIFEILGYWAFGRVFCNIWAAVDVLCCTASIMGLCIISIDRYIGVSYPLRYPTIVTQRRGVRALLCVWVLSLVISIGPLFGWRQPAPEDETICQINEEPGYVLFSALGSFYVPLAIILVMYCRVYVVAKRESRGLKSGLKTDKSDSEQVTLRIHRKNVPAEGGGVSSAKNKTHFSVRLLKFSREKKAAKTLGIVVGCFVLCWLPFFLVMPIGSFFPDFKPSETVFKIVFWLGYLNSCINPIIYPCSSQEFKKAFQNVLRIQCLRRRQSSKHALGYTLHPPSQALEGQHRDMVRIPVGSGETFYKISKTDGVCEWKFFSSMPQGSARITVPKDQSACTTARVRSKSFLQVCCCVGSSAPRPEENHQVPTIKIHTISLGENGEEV
The test can be described thus: Tested for its binding affinity against alpha-1 receptor in rat brain membrane. Type of test: cell membranes.

The target of test [2] is T2, Adrenergic receptor alpha-1 (Homo sapiens, UniProt P35348+P25100+P35368).
T2 sequence (P35348 whole entry): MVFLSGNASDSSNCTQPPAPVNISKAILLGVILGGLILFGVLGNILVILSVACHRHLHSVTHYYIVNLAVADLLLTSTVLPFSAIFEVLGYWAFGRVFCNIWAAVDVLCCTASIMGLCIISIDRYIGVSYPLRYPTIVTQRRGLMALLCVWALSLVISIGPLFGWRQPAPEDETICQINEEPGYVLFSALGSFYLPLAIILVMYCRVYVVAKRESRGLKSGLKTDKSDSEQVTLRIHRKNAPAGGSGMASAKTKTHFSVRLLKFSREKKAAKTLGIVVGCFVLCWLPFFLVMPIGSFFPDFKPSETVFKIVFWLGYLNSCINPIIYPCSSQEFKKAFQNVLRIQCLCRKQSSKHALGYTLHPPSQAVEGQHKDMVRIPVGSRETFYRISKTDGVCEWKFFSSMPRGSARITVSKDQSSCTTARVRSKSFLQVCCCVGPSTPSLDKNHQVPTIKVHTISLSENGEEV
T2 sequence (P25100 whole entry): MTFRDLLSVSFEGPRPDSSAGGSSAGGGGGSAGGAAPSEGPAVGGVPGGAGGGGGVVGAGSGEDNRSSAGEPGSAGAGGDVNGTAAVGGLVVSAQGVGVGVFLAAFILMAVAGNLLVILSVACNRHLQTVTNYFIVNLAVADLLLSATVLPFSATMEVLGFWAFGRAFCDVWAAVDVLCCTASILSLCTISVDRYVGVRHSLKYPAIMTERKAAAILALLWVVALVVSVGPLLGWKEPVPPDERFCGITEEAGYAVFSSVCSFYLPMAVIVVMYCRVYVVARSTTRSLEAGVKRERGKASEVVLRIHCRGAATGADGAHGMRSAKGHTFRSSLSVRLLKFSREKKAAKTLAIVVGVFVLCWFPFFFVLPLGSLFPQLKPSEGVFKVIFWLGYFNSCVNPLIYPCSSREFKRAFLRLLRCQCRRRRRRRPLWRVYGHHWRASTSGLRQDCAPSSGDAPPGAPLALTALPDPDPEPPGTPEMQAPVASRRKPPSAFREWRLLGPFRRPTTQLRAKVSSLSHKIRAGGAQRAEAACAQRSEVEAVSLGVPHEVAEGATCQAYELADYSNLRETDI
T2 sequence (P35368 whole entry): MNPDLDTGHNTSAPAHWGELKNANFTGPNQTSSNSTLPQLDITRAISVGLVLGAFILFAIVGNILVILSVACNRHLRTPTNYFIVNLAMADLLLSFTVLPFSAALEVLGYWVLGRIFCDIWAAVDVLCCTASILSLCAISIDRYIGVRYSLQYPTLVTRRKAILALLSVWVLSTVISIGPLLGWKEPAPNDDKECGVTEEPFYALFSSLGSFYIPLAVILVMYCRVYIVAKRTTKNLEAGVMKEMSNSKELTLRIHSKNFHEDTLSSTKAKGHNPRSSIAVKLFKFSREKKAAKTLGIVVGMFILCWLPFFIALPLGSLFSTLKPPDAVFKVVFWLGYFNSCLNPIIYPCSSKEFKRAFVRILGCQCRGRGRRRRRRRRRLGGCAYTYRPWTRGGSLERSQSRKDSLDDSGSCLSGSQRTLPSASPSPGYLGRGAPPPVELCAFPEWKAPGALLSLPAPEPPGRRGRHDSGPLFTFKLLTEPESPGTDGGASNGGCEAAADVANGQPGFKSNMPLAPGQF
The test can be described thus: Tested for its inhibitory activity against alpha-1 adrenoceptor in guinea pig ileum. Type of test: tissue-based, Cavia porcellus. The following applies: target entry is the homologue from another species.

The Ki is a measure of affinity in units of concentration, obtained from inhibition or displacement. A higher Ki goes with lower affinity. Usually EC50 stands for the concentration that produces a half-maximal response. A higher EC50 goes with a need for much substance. In the case of `CC(c1c[nH]cn1)c1cccc2ccccc12` (stereo in doubt; S-(-)-2), the Ki in test [1] is on record as 536 nM. Further, the EC50 in test [2] is reported as 10814 nM. On the same counts, the results for `Cl.c1ccc2c(Cc3c[nH]cn3)cccc2c1` are 188 nM and 2113 nM.

With `Cc1cccc(C(C)c2c[nH]cn2)c1C` (stereo not drawn) [MEDETOMIDINE], in test [1], the Ki is recorded as 1102 nM. In test [2], the EC50 was determined as 1165 nM. For `CC(c1c[nH]cn1)c1cccc2ccccc12` (stereo in doubt; 2) the same measures were 310 nM and 5793 nM. For `CC(c1c[nH]cn1)c1cccc2ccccc12` (stereo in doubt; S-(+)-2) the same measures were 461 nM and 8273 nM. As to `COC(c1c[nH]cn1)c1cccc2ccccc12.Cl` (stereo not drawn), the Ki in test [1] was > 50000 nM. Regarding `Cl.OC(c1c[nH]cn1)c1cccc2ccccc12` (stereo not drawn), the inhibitory constant (Ki) in test [1] came to 9255 nM. In test [2], this molecule displayed an EC50 of 12692 nM.
